Data set [1] relates to MDA-MB-468 breast cancer xenograft. The data set can be described thus: In vivo tumor regression study, subcutaneous administration. Conditions: 0.75 mg/kg. From the text:
Since there was no statistical difference in efficacy observed between FSI-Rapa and FAF-Rapa intravenously, Applicants next employed SC route of administration in the same MDA-MB-468 xenograft mouse model (FIGS. 5A-5H). The rationale behind exploring SC route was to distinguish the uptake and bio distribution of different FKBP-ELPs from the site of injection into the systemic circulation. […] SC route further presents a convenient administration method compared to IV route with more clinical relevance and has been FDA approved for monoclonal antibodies and biotherapeutics.
The comparative tumor regression study consisted of 5 groups: PBS, Free Rapa, FAF-Rapa, FA-Rapa, and FSI-Rapa at the same maximum tolerated dose of 0.75 mg/kg (n=6-8/group). All treatments were done subcutaneously in the right flank above the hind leg. […] Because of the toxic side effects, mice were thereafter treated with free Rapa in DMSO:EtOH:Cremophore-EL:PBS formulation in 1:1:2:6% v/v ratio. […] However, the mice gradually gained back the lost BW which enabled us to continue the treatment with the Cremophore formulation. To prevent further local discomfort to mice, a different site of injection was chosen each time spanning the entire flank region for free Rapa injections. […] There was no local bruising or scabs observed with any of the FKBP-ELP-Rapa formulations which made the treatment easier and at the same site of injection throughout the study.
All animal experiments were conducted as per the guidelines of the American Association of Laboratory Animal Care under an USC approved protocol. MDA-MB-468 cells (American Type Tissue Culture Collection) were cultured at 37° C. with 5% CO2 in Dulbecco's modified Eagle's medium (DMEM)/Ham's F-12 media (Caisson) supplemented with 10% fetal bovine serum. The cells were sent for screening against all major mouse pathogens and human blood borne pathogens (Charles River) prior to implantation. A single injection of MDA-MB-468 cells (1-2×10^6 cells in 100 μL fetal bovine serum free DMEM media) was implanted into the left mammary fat pad of 7-8 weeks old female nude (nu/nu) athymic mice (Harlan, Inc.) Tumors were allowed to grow to a size of ˜50-100 mm^3 and mice were randomized blindly into respective groups before start of treatment. […] BW and tumor size were measured thrice a week on the same day of injections. Tumor size was measured using Vernier calipers and tumor volume was calculated using the following equation:
where a and b represents smaller and bigger length respectively. […] Tumor burden was calculated by determining the trapezoidal area under the growth curve for each mouse by using the following equation: […]

For data set [2] the following is noted: cited from earlier work.

Results on one molecule are retold here after patent publication US20190290726A1, “PROTEIN POLYMER FUSIONS FOR SUBCUTANEOUS DELIVERY OF SMALL MOLECULES” (University of Southern California, priority 2016, published 2019).

≈ marks a conversion by molar mass, not a printed value. Entries after “also recorded” stand apart in the source; their conditions may differ.

Turning to `CO[C@H]1C[C@@H]2CC[C@@H](C)[C@@](O)(O2)C(=O)C(=O)N2CCCC[C@H]2C(=O)O[C@H]([C@H](C)C[C@@H]2CC[C@@H](O)[C@H](OC)C2)CC(=O)[C@H](C)/C=C(\C)[C@@H](O)[C@@H](OC)C(=O)[C@H](C)C[C@H](C)/C=C/C=C/C=C/1C` [Free Rapa, (3S,6R,7E,9R,10R,12R,14S,15E,17E,19E,21S,23S,26R,27R,34aS)-9,10,12,13,14,21,22,23,24,25,26,27,32,33,34,34a-hexadecahydro-9,27-dihydroxy-3-[(1R)-2-[(1S,3R,4R)-4-hydroxy-3-methoxycyclohexyl]-1-methylethyl]-10,21-dimethoxy-6,8,12,14,20,26-hexamethyl-23,27-epoxy-3H-pyrido[2,1-c][1,4]-oxaazacyclohentriacontine-1,5,11,28,29(4H,6H,31H)-pentone], the “tumor burden compared to PBS group” value in data set [1] (SC, Tukey post hoc, last day of treatment (day 50)) was “statistically significance compared to PBS group; also recorded: significantly lower compared to PBS”. In addition, in data set [1] (SC, endpoint 4 times increase in tumor volume), the Kaplan-Meier survival analysis result is “better anti-tumor efficacy than other groups”. Also, in data set [1] (mouse, in vivo, sc), the “drop in BW” value was 10% and the “toxicity, local toxicity at the site of injection” value is recorded as “considerable local toxicity at site of subcutaneous injection”. Besides, the aqueous solubility in data set [2] is ~10 µM (≈ 9.14 µg/mL).
